The values that follow come from patent US6590140B1, “Metal-regulated transporters and uses therefor” (Trustees of Dartmouth College, priority 1996, dated 2003).

“Also recorded” adds a separate entry of the source.

The target of assay [1] is T1, IRT1 (Arabidopsis thaliana, UniProt Q38856).
T1 construct: contain a single 1017 bp open reading frame capable of encoding a polypeptide of 339 amino acids; expressed in transfected cells; host or cells: S. cerevisiae fet3 fet4 strain DEY1453 carrying pIRT-1 (pFL61 library vector, phosphoglycerate kinase promoter)
T1 sequence (Q38856 9-347 limits assumed): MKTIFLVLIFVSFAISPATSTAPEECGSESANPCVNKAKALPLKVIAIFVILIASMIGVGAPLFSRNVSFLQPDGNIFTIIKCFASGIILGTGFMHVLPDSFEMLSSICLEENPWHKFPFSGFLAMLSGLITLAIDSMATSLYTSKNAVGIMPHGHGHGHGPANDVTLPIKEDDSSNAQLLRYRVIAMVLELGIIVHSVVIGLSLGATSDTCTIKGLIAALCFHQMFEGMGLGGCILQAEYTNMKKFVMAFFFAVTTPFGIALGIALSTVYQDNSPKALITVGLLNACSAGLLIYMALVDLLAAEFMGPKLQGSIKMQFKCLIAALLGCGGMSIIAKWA
The experiment in a line: 55Fe uptake in fet3 fet4 yeast expressing IRT1. The assay is classed as cell-based. The conditions noted are these: for effect on the rate of iron uptake by IRT1: 10 μM metal, 10 times the radiolabeled iron, Fe(II) with 1 mM ascorbate, 10 min. As for the experimental part: Iron uptake assays using ^55FeCl3 (Amersham, Arlington Heights, Ill.) were performed as described (Eide, D. et al. (1992) J. Biol. Chem. 267: 20774-20781) except that MGN (10 mM Mes/2% glucose/1 mM nitrilotriacetic acid, pH 6.1) was used for the assay buffer. Where noted, 1 mM sodium ascorbate was added to reduce Fe(III) to Fe(II). Stock solutions of the chloride salt of each metal (except for iron) were prepared in water at a concentration of 100 mM and diluted into MGN to a final concentration of 10 μM before addition of the cells. The ^56FeCl3 stock was 50 mM prepared in 0.1 M HCl. The statistical significance of differences in values relative to controls was determined using STATVIEW software (Abacus Concepts, Berkeley, Calif.). Data was subjected to one-way analysis of variance (ANOVA) followed by a Scheffe's test.
To determine if IRT1 encodes an iron transporter, ^55Fe uptake rates were examined in a fet3 fet4 strain expressing IRT1. Little or no uptake was detected at 0° C. for either IRT1-expressing or untransformed control cells (FIG. 2A). The fet3 fet4 mutant strain DEY1453 (circles) and DEY1453 transformed with pIRT-1 (squares) were grown to exponential phase in SD glucose and assayed for iron uptake with ^55Fe. (A) Time- and temperature-dependence of iron accumulation assayed in MGN with 1 mM ascorbate and 5 μM ^55FeCl3 assayed at 30° C. (open symbols) or 0° C. (solid symbols). The dashed line marked with open triangles represents the IRT1-dependent accumulation, i.e., the accumulation of iron by the untransformed strain at 30° C. subtracted from the accumulation of the pIRT-1-bearing strain at 30° C. […] The IRT1-dependent rate was ≈3-fold higher than the control uptake rate. No increased uptake was apparent in strains bearing either of two randomly selected clones from the library, indicating the dependence of these uptake effects on expression of IRT1. The iron uptake activity dependent on IRT1 expression was also concentration-dependent and saturable (FIG. 2B). The same strains as in A were assayed for iron uptake rates for 10 min over a range of concentrations. The dashed lines marked with open triangles represents the IRT1-dependent uptake rate, i.e., background uptake rate of the untransformed strain subtracted from the corresponding rate of the pIRT-1-bearing strains. (Inset) Eadie-Hofstee plot of the IRT1-dependent uptake data. Each point represents the mean of three experiments each performed in duplicate. The standard deviation within each experiment was less that 20% of the corresponding mean.
The experiments described above were conducted with iron supplied as Fe(II), i.e., in the presence of ascorbate, an agent capable of reducing Fe(III) to Fe(II). To determine if Fe(II) is the preferred substrate over Fe(III), assays were carried out in the absence of ascorbate where iron is supplied to the cells as Fe(III). […] The fet3 fet4 mutant strain DEY1453 and DEY1453 transformed with pIRT-1 were grown to exponential phase is SD glucose and assayed for iron uptake with 1 μM FeCl3 in MGN for 10 min. The values shown are the IRT1-dependent rates, i.e., the untransformed strain control values were subtracted from the DEY1453 pIRT-1 values and represent the means of four replicates. The asterisks indicate significant of differences from the control values (P<0.05). Assays were performed in the absence [Fe(III)] or presence [Fe(II)] of 1 mM ascorbate. […] Although yeast are capable of reducing Fe(III) to Fe(II) through the action of plasma membrane Fe(III) reductases, this rate of cell-mediated reduction is slower than reduction by ascorbate and therefore may be rate-limiting for IRT1-dependent uptake. To assess if metals other than iron are potential substrates for IRT1, several transition metals were tested for their ability to inhibit accumulation of iron in IRT1-expressing cells (FIG. 3B). Assays were conducted in the absence (−) or presence of 10 μM metal. […]

Assay [2] deals with T2, low affinity zinc uptake system (Zrt2p) (Saccharomyces cerevisiae, UniProt Q12436).
T2 construct: endogenous in cells; host or cells: S. cerevisiae ZHY1 (zrt1::LEU2) and zinc-replete DY1457; some values come from ZHY1 carrying pMC4 (multicopy genomic ZRT2) or pOE2 (ZRT2 ORF under GAL1)
T2 sequence (Q12436 whole entry): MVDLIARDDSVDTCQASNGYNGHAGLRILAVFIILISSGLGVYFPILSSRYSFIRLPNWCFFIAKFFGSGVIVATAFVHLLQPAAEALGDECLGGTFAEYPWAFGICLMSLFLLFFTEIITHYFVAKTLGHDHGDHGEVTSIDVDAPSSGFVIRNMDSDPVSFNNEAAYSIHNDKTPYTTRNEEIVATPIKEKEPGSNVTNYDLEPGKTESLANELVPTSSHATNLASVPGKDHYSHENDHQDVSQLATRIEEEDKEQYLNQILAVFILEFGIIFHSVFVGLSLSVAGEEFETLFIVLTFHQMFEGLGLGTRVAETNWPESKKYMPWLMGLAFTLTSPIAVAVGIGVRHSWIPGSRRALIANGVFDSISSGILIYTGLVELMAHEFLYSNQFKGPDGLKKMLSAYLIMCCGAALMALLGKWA
The assay is classed as cell-based. As for the experimental part:
(§1) Zinc uptake assays were performed as described previously for iron uptake (Eide et al. J. Biol. Chem. 267:20774-20781) except that ^65ZnCl2 (Amersham Corp., Arlington Heights, Ill.) and LZM-EDTA were substituted for ^59FeCl3 and LIM-EDTA. Cells were incubated at 30° C. with ^65Zn for five minutes, filtered, and washed with 10 ml ice-cold SSW. Cell-associated radioactivity was measured by liquid scintillation. Kinetic values were derived using KinetAsyst software (IntelliKinetics, Princeton, N.J.). Zinc accumulation was measured in cells grown in LZM medium supplemented with […] ^65Zn plus nonradioactive zinc to the indicated final concentration. Aliquots (0.5 ml) were filtered, washed with 10 ml ice-cold SSW, and counted by liquid scintillation. b-galactosidase activity was assayed as described by Guarente (Guarante, L. (1983) Methods Enzymol101:181-191).
(§2) Zinc uptake assays were performed as described previously for iron uptake (Eide et al. (1992) J. Biol. Chem. 267:20774-20781) except that ^65ZnCl2 (Amersham) and LZM-EDTA were substituted for ^59FeCI3 and LIM-EDTA, respectively. Cells were incubated for 5 minutes in LZM-EDTA plus the indicated concentration of ^65Zn, collected on glass fiber filters (Schleicher and Schuell), washed with 10 ml ice-cold SSW (1 mM EDTA, 20 mM trisodium citrate, 1 mM KH2PO4, 1 mM CaCl2, 5 mM MgSO4, 1 mM NaCl pH 4.2), and cell-associated radioactivity was measured by liquid scintillation counting. Cells were starved for glucose by incubating them in LZM-EDTA prepared without glucose for one hour at 30° C. prior to assay. Michaelis-Menten kinetic values were determined using […] software (Intellikinetics, Princeton, N.J.). Stock solutions of the chloride salts of Co, Cu, Mg, Mn, and Ni were prepared in distilled water at a concentration of 100 mM. The nonradioactive ZnCl2 stock was prepared at 100 mM in 0.02 N HCl and the FeCl3 stock was prepared at 50 mM in 0.1 N HCl. The statistical significance of the differences of values relative to controls was determined with one-way analysis of variance (ANOVA) followed by a Dunnett multiple comparison test. β-galactosidase activity was assayed in cells harvested at an OD600 of 0.5-2.0 as described by Guarente (Guarente, L. (1983) Methods Enzymol. 101:181-191) and activity is expressed as the change in absorbance at 420 nm×1000 divided by (min×ml of culture used×OD600 of the culture). Cell-associated zinc was measured in parallel cultures supplemented with tracer amounts of ^65Zn (10 μM) and nonradioactive zinc to the indicated final concentration. Aliquots (0.5 ml) were filtered, washed with 10 ml ice-cold SSW, and radioactivity measured by liquid scintillation.
(§3) To determine if ZRT1 plays a role in zinc uptake, the biochemical properties of this process in wild type cells were first characterized. […] Wild type (FIG. 10, DY1457, squares) and zrt1 mutant (FIG. 10, ZHY1, circles) cells were grown to exponential phase in zinc-limited (open symbols, FIG. 10) and zinc-replete (FIG. 10, closed symbols) media and assayed for zinc uptake rate over a range ZnSO4 concentrations. Zinc-limited media was LZM+10 μM zinc for the wild type and LZM+500 μM zinc for the mutant. Zinc-replete conditions were LZM+1000 μM for both strains. ZHY1(pOE1) cells (FIG. 10, triangles) were grown in zinc-replete SDgal medium.
(§4) Mutant zrt1 (ZHY1) cells were grown in LZM supplemented with 1 mM ZnCl2. Cells were incubated with 10 μM ^65Zn for the indicated times at either […]

For assay [3], the target named is T3, high affinity zinc uptake system (Zrt1p) (Saccharomyces cerevisiae, UniProt P32804).
T3 construct: endogenous in cells; host or cells: S. cerevisiae DY1457 (wild type, zinc-limited) and ZHY2 (zrt2); one kinetic value comes from ZHY1 carrying pOE1 (ZRT1 ORF under the GAL1 promoter)
T3 sequence (P32804 whole entry): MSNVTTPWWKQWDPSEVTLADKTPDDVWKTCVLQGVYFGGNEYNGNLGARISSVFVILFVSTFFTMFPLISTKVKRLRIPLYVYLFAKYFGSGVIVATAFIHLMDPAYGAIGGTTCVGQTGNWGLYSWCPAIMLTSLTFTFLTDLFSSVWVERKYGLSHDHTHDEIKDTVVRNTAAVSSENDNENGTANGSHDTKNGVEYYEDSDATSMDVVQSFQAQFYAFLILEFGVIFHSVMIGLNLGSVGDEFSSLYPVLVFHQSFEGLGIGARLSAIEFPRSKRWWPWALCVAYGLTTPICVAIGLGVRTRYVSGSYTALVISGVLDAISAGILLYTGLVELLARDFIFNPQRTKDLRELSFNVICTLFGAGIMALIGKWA
Put plainly: 65Zn uptake assay in yeast, high affinity zinc uptake system. Type of assay: cell-based. Here is the method: as §1, §2, §3, §4

Assay [4] concerns zrt1 mutant (ZHY1) cells. The assay is classed as cell-based, Saccharomyces cerevisiae. The conditions noted are these: 500 μM metal added to iron-limiting medium LIM (1 mM EDTA). Here is the method:
Strains used were DY1457 (MATα ade6 can1 his3 leu2 trp1 ura3) and ZHY1 (MaTα ade6 can1 his3 leu2 trp1 ura3 zrt1:: LEU2). Yeast were grown in standard culture media (SD, YPD) (Eide, D., Davis-Kaplan S., Jordan, I., Sipe, D., and Kaplan, J. (199: 2) J. Biol. Chem. 267, 20774-20781) supplemented with necessary auxotrophic requirements and either 2% glucose or 2% galactose. A zinc-limiting medium (LZM) was prepared in the same manner as LIM (Eide and Guarenete (1992) J. Gen. Microbiol. 138:347-354) except that […]. Cell number in liquid cultures was determined by measuring the optical density of cell suspensions at 600 nm (A600) and converting to cell number with a standard curve.
Strains used were DY1457 (MATα ade6 can1 his3 leu2 trp1 ura3), ZHY1 (AMTα ade6 can1 his3 leu2 trp1 ura3 zrt1::LEU2), ZHY2 (MATα ade6 can1 his3 leu2 trp1 ura3 zrt2::HIS3), and ZHY3 (MATα ade6 can1 his3 leu2 trp1 ura3 zrt1::LEU2 zrt2::HIS3). Yeast were grown in YP or SD media (Sherman et al. (1986) Methods in Yeast Genetics, Cold Spring Harbor Laboratory, Cold Spring Harbor, N.Y.) supplemented with necessary auxotrophic requirements and either 2% glucose or 2% galactose. Zinc-limiting YP and SD agar plates contained either bathophenanthroline disulfonate (BPS, 200 μM) or EDTA (1 mM), respectively. A liquid zinc-limiting medium (low zinc medium, LZM) was prepared in the same manner as low iron medium (LIM) (Eide and Guarente (1992) J. Gen. Microbiol. 138:347-354) except that the […]. LZM is similar in composition to SD medium with two modifications essential to controlling zinc availability. First, 1 mM EDTA is added to provide buffering for the concentration of free metal ions. Second, the medium is pH-buffered at 4.2 with 20 mM citrate to prevent pH changes that could alter the metal binding ability of EDTA. LZM was also prepared without EDTA ([…]) which is less zinc-limiting because the predominant chelator in this medium, citrate, binds zinc with less affinity than does EDTA. The concentrations of free (i.e. unchelated) zinc were calculated using MAXCHELATOR software (Chris Patton, Stanford University). Cell number in liquid cultures was determined by measuring the absorbance of cell suspensions at 600 nm (OD600) and converting to cell number with a standard curve.
To examine the function of ZRT1, a disruption mutation, zrt1::LEU2, was constructed by inserting the LEU2 gene into the center of ZRT1 (FIG. 6). This zrt1 disruption allele was then introduced into a haploid yeast strain. […] Because of the high EDTA concentration in LIM (1 mM), this medium is expected to have low available levels of other metals that are bound tightly by this chelator. Supplements of other metals were tested for improved growth of the zrt1 mutant in LIM. […] To study this effect further, a low zinc medium, LZM, was developed in which cell growth could be limited by zinc deficiency and the growth response of the wild type and zrt1 mutant strains to increasing levels of supplemented zinc was examined. Wild type (DY1457, squares) and zrt1 mutant (ZHY1, circles) cells were inoculated into LZM supplemented with the indicated amount of ZnSO4 and grown for 16 hours prior to cell number determination. […] Mutant zrt1 cells attained this same maximum number of cell divisions only with zinc supplements of 750 μM or more, i.e. a 75-fold increase in the zinc requirement of the zrt1 mutant compared to the wild type.
To further assess the role of the low affinity system as a source of zinc, growth of wild type and zrt2 cells in a zinc-limiting medium, LZM, supplemented with increasing amounts of zinc was examined. The same strains as in FIG. 15 were grown for six hours in SD glucose medium, harvested, washed in LZM, and reinoculated into either LZM (FIG. 15A) or LZM-EDTA (FIG. 15B) supplemented with the indicated concentrations of ZnCl2 ([Zn]T). […]

[5] abbreviates: 1 mM ascorbate, control experiments.

On to `[Cl][Cd][Cl]` [Cd], for which, in assay [1], the “inhibition of IRT1-mediated Fe(II) uptake in yeast (summary statement)” value is “inhibitors of IRT1-mediated Fe(II) uptake; also recorded: strongly inhibited” and the “effect on the rate of iron uptake by IRT1” value is listed as “potent inhibitors”. `[K+]` [K^+]: the “inhibition of zinc uptake by the low affinity system” value in assay [2] (high extracellular K+ (100 mM)) is given as “not inhibited”.

Take `[Cl-].[Cl-].[Mg+2]` [Mg]: the “effect on zinc uptake by the low affinity system” value in assay [2] (200 μM added metal, 20 μM 65Zn, five minutes, zrt1 mutant cells) was “did not diminish zinc uptake”. The “effect on zinc uptake by the high affinity system” value in assay [3] (20 μM added metal, 2 μM 65Zn, five minutes, zinc-limited wild type) was “unaffected”. In assay [4], the “effect on zrt1 growth in LIM” value is reported as “no effect”. Turning to `[Cl-].[Cl-].[Sr+2]` [Sr], in assay [1], the “effect on the rate of iron uptake by IRT1” value is on record as “no significant effect”. `O=C1O[C@H]([C@@H](O)CO)C([O-])=C1O.[Na+]` [ascorbate, sodium ascorbate, reference compound]: the “effect on the rate of zinc uptake” value in assay [2] (setting [5]) and in assay [3] (setting [5]) was “no effect” in each case.
